Source: publication PMC4319531 (Bioorganic & medicinal chemistry letters, 2014)

Key:
[1] = microsomes
[2] = Metabolic stability in human liver microsomes; settings: both, pooled human liver microsomes, pH 7.4
[3] = Metabolic stability in human intestinal microsomes; settings: both, pooled human intestinal microsomes, pH 7.4
[4] = molecular target: T1, recombinant CE-1 (Homo sapiens, UniProt P23141); assay: Incubation with purified recombinant CE-1; assay type: in vitro ADME; settings: 10 μM, within 60 minutes at room temperature
T1 sequence (P23141 18-567): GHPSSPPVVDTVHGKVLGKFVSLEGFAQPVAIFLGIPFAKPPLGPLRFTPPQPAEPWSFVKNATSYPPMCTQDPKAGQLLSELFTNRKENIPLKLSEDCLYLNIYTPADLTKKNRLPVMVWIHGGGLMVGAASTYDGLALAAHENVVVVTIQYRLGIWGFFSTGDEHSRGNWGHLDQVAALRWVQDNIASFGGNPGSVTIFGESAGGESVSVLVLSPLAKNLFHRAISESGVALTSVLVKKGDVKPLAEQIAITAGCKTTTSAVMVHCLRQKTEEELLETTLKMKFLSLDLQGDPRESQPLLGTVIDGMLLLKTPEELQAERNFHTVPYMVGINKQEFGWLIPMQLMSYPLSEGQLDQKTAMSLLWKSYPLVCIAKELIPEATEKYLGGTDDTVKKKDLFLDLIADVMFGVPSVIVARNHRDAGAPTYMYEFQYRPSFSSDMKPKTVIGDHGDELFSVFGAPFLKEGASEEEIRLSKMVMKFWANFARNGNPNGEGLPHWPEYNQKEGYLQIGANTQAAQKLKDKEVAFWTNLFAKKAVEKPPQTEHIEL

[5] = molecular target: T2, recombinant CE-2 (Homo sapiens, UniProt O00748); assay: Incubation with purified recombinant CE-2; assay type: in vitro ADME; settings: 10 μM, within 60 minutes at room temperature
T2 sequence (O00748 27-559): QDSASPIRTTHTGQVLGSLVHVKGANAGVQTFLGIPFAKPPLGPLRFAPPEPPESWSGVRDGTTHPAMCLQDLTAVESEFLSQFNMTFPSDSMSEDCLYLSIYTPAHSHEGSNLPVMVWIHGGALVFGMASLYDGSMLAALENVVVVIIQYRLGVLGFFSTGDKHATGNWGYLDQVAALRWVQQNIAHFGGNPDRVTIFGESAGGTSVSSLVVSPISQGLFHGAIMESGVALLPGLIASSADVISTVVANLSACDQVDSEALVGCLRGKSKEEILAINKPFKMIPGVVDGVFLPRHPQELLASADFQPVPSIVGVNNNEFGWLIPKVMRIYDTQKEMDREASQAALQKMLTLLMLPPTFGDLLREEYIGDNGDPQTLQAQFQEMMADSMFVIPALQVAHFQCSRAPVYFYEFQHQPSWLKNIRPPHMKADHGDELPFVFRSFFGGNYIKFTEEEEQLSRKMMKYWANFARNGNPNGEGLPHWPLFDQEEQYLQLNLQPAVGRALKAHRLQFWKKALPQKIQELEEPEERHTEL

Row | microsomal CLint at 1 μM [3] [µL/min/mg] | sensitivity to hydrolysis by recombinant CE-1 [4] | sensitivity to hydrolysis by recombinant CE-2 [5] | Molecule | also measured
1 |  |  |  | 2-(4-(4((benzyl(2methyl3(methylsulfonamido)phenyl)amino)methyl)phenoxy)phenoxy)ethyl 2-isobutyl-5-((methoxycarbonyl)amino)pentanoate [Compound 8b] | half life (t1/2, min) HLM ([1]; human, pH 7.4): 17 min; CLint, in vitro HLM [1]: 82 µL/min/mg; CLint, in vitro HIM (microsomes): 220 µL/min/mg; half life (t1/2, min) HIM (pH 7.4): 6.3 min
2 | 2600 |  |  | COC(=O)NCCCC(C)C(=O)Oc1ccc(Oc2ccc(CN(Cc3ccccc3)c3cccc(NS(C)(=O)=O)c3C)cc2)cc1 (stereo not drawn) [Compound 8a, 4-(4-((benzyl(2-methyl-3-(methylsulfonamido)phenyl)amino)methyl)phenoxy)phenyl 5-((methoxycarbonyl)amino)-2-methylpentanoate] | microsomal CLint at 1 μM [2]: 1000 µL/min/mg
3 | 1700 |  |  | C#CCC(CCCNC(=O)OC)C(=O)Oc1ccc(Oc2ccc(CN(Cc3ccccc3)c3cccc(NS(C)(=O)=O)c3C)cc2)cc1 (stereo not drawn) [Compound 8c] | 
4 | 140 |  |  | COC(=O)NCCCC(Cc1ccccc1)C(=O)Oc1ccc(Oc2ccc(CN(Cc3ccccc3)c3cccc(NS(C)(=O)=O)c3C)cc2)cc1 (stereo not drawn) [Compound 8d] | 
5 | 1000 |  |  | COC(=O)NCCCC(C)(C)C(=O)Oc1ccc(Oc2ccc(CN(Cc3ccccc3)c3cccc(NS(C)(=O)=O)c3C)cc2)cc1 [Compound 8e, 4-(4-((benzyl(2-methyl-3-(methylsulfonamido)phenyl)amino)methyl)phenoxy)phenyl 5-((methoxycarbonyl)amino)-2,2-dimethylpentanoate] | 
6 | 43 | completely resistant | moderate to extensive hydrolysis | COC(=O)NCCCC(C)(Cc1ccccc1)C(=O)Oc1ccc(Oc2ccc(CN(Cc3ccccc3)c3cccc(NS(C)(=O)=O)c3C)cc2)cc1 (stereo not drawn) [Compound 8f] | 
7 | 480 | completely resistant | moderate to extensive hydrolysis | COC(=O)NCCCC(Cc1cn(Cc2ccccc2)nn1)C(=O)Oc1ccc(Oc2ccc(CN(Cc3ccccc3)c3cccc(NS(C)(=O)=O)c3C)cc2)cc1 (stereo not drawn) [Compound 8g, 4-(4-((benzyl(2-methyl-3-(methylsulfonamido)phenyl)amino)methyl)phenoxy)phenyl 2-((1-benzyl-1H-1,2,3-triazol-4-yl)methyl)-5-((methoxycarbonyl)amino)pentanoate] | microsomal CLint at 1 μM [2]: 140 µL/min/mg
8 | 1900 | completely resistant | moderate to extensive hydrolysis | C#CCC(CCCNC(=O)OC)C(=O)OCCOc1ccc(Oc2ccc(CN(Cc3ccccc3)c3cccc(NS(C)(=O)=O)c3C)cc2)cc1 (stereo not drawn) [Compound 9c] | 
9 |  | completely resistant | moderate to extensive hydrolysis | COC(=O)NCCCC(Cc1cn(Cc2ccccc2)nn1)C(=O)OCCOc1ccc(Oc2ccc(CN(Cc3ccccc3)c3cccc(NS(C)(=O)=O)c3C)cc2)cc1 (stereo not drawn) [Compound 9g] | 
